The source of these data is US11046696B2, “Fused pyrimidine compound or salt thereof” (TAIHO PHARMACEUTICAL CO., LTD., priority 2016, dated 2021).

This data set is described as follows: Evaluation of stability in liver microsome. Particulars: mouse liver microsome, 1 μM, 37° C. for 30 minutes. For orientation: Microsomes from liver hold many membrane-bound enzymes, among them those of drug oxidation.

In the case of `CCc1c(C(=O)Nc2ccc(COC)cc2)c2c(N)ncnc2n1C1(C)CC1` [Example 207, 4-amino-6-ethyl-N-(4-(methoxymethyl)phenyl)-7-(1-methylcyclopropyl)-7H-pyrrolo[2,3-d]pyrimidine-5-carboxamide], the “Remaining (%)” value stood at 72%.
Under `COCc1ccc(NC(=O)c2c(Cl)n(C3(C)CC3)c3ncnc(N)c23)cc1` [Example 56, 4-amino-6-chloro-N-[4-(methoxymethyl)phenyl]-7-(1-methylcyclopropyl)-7H-pyrrolo[2,3-d]pyrimidine-5-carboxamide] stands 62%.
For `COCc1ccc(NC(=O)c2c(OCC3CCCO3)n(C3(C)CC3)c3ncnc(N)c23)cc1` (centres unmarked) [Example 135, 4-amino-N-(4-(methoxymethyl)phenyl)-7-(1-methylcyclopropyl)-6-((tetrahydrofuran-2-yl)methoxy)-7H-pyrrolo[2,3-d]pyrimidine-5-carboxamide] the value was 67%.
In the case of `COCc1ccc(NC(=O)c2c(OCC3CCCCO3)n(C3(C)CC3)c3ncnc(N)c23)cc1` (centres unmarked) [Example 102, 4-amino-N-(4-(methoxymethyl)phenyl)-7-(1-methylcyclopropyl)-6-((tetrahydro-2H-pyran-2-yl)methoxy)-7H-pyrrolo[2,3-d]pyrimidine-5-carboxamide], the “Remaining (%)” value came to 60%.
For `COCc1ccc(NC(=O)c2c(C#CC(C)(C)O)n(C3(C)CC3)c3ncnc(N)c23)cc1` [Example 174, 4-amino-6-(3-hydroxy-3-methylbut-1-yn-1-yl)-N-(4-(methoxymethyl)phenyl)-7-(1-methylcyclopropyl)-7H-pyrrolo[2,3-d]pyrimidine-5-carboxamide] the value was 72%; for `COCc1ccc(NC(=O)c2c(-c3ccc(N4CCN(C)CC4)cc3)n(C3(C)CC3)c3ncnc(N)c23)cc1` [Example 171, 4-amino-N-(4-(methoxymethyl)phenyl)-7-(1-methylcyclopropyl)-6-(4-(4-methylpiperazin-1-yl)phenyl)-7H-pyrrolo[2,3-d]pyrimidine-5-carboxamide], 77%; for `Nc1ncnc2c1c(C(=O)Nc1ccc(Oc3ccccc3)cc1)cn2C1CCCC1` [Compound 2 of Comparative Examples, 4-amino-7-cyclopentyl-N-(4-phenoxyphenyl)-7H-pyrrolo[2,3-d]pyrimidine-5-carboxamide, reference compound], 0%.
As to `COCc1ccc(NC(=O)c2c(C#CC3(O)CCOC3)n(C3(C)CC3)c3ncnc(N)c23)cc1` (centres unmarked) [Example 177, 4-amino-6-((3-hydroxytetrahydrofuran-3-yl)ethynyl)-N-(4-(methoxymethyl)phenyl)-7-(1-methylcyclopropyl)-7H-pyrrolo[2,3-d]pyrimidine-5-carboxamide], the “Remaining (%)” value is given as 72%.
Under `COCc1ccc(NC(=O)c2c(C#Cc3cnc4ccoc4c3)n(C3(C)CC3)c3ncnc(N)c23)cc1` [Example 159, 4-amino-6-(furo[3,2-b]pyridin-6-ylethynyl)-N-(4-(methoxymethyl)phenyl)-7-(1-methylcyclopropyl)-7H-pyrrolo[2,3-d]pyrimidine-5-carboxamide] stands 78%; under `COCc1ccc(NC(=O)c2c(-c3cncnc3)n(C3(C)CC3)c3ncnc(N)c23)cc1` [Example 194, 4-amino-N-(4-(methoxymethyl)phenyl)-7-(1-methylcyclopropyl)-6-(pyrimidin-5-yl)-7H-pyrrolo[2,3-d]pyrimidine-5-carboxamide], 67%; under `COCc1ccc(NC(=O)c2c(-c3ccc(F)nc3)n(C3(C)CC3)c3ncnc(N)c23)cc1` [Example 190, 4-amino-6-(6-fluoropyridin-3-yl)-N-(4-(methoxymethyl)phenyl)-7-(1-methylcyclopropyl)-7H-pyrrolo[2,3-d]pyrimidine-5-carboxamide], 58%.
